{
  "source": "paper PMC12535076",
  "about": "“Neurotherapeutic effects of Vutiglabridin as a Paraoxonase-2 modulator in preclinical models of Parkinson’s disease” (Molecular Neurodegeneration, 2025)",
  "key": {"[1]": {"system": "MPTP-injected C57BL/6 mice", "experiment": "MPTP-injected sub-acute PD mouse model (pole test, rotarod, TH immunohistochemistry)", "assay_type": "in vivo", "conditions": "MPTP mice", "procedure": "Animals were allowed at least 1 week of acclimatization before being subjected to the study and were housed in a regulated environment with a 12-h/12-h light/dark cycle. Food and water were provided ad libitum. The animal experiment was carried out in accordance with the National Institutes of Health Guide for the Care and Use of Laboratory Animals (NIH Publications No. 80–23; revised 1996). All procedures for handling mice were carried out in accordance with “Principles of Laboratory Animal Care” and the Animal Care and Use guidelines of Kyung Hee University, Seoul, Korea (KHSASP-20-163).\nMPTP was dissolved in distilled water and injected intraperitoneally for five days from day 10 of the 21-day experiment period. Vuti or rasagiline was administered via oral gavage for 21 days. Vehicles for both Vuti and MPTP (distilled water) were administered to all mice. Mice were randomly divided for all studies. For the first set of studies shown in Fig. 3, each group consisted of 5 animals.\nTo determine forelimb and hindlimb motor coordination and balance, we performed the rotarod test as described previously. Also, the pole test was performed to measure bradykinesia. For the rotarod test, the animals were pre-trained on the rotating bar of a rotarod unit set (LE 8500, Letica, Spain) on days 18 and 19 before the test on day 20. During pre-training, three trials per day were performed (5 rpm rotation speed on the first day, 15 rpm rotation speed on the second day). Mice were kept on the rotating bar (7.3-cm diameter) for 5 min on each trial. On day 20, the time spent on the rotating bar at 20 rpm, which was defined as the latent period, was recorded. Performance was recorded as 300 s if the latent period exceeded 300 s. Mice had at least 5 min of rest between trials to reduce stress and fatigue. Each animal underwent three test trials, and the mean of the test results was subjected to statistical analysis. For the pole test, mice were held on the top of the pole (diameter 8 mm, height 55 cm, with a rough surface). The time to land down and place four fee on the floor was recorded as the time for locomotion activity (T-LA).\nOn day 21, mice were anesthetized with sodium pentobarbital (50 mg/kg intraperitoneally) and transcardially perfused with saline containing 0.5% sodium nitrate and heparin (10 U/mL) and then fixed with 4% PFA in 0.1 M phosphate-buffer (PB, pH 7.2). Dissected brains were post-fixed overnight in buffered 4% PFA at 4 °C and stored in a 30% sucrose solution until they sank. Brains were cryosectioned into 30 μm thick coronal sections in a Cryostat (Microsystems AG, Leica, Wetzlar, Germany) and stored until use at 4℃ in a cryoprotectant (25% ethylene glycol, 25% glycerol, 0.2 M PB, and water). All sections were collected in six separate series and processed for immunostaining.\nFree-floating brain sections were processed with the avidin-biotin peroxidase complex (ABC) complex (Vector Laboratories, Burlingame, CA, USA) method. Briefly, brain sections were incubated with primary rabbit anti-TH antibodies (1:1000; Pel-Freez Biologicals, Rogers, AR, USA) overnight at 4 °C, with biotinylated anti-rabbit IgG (1:400) for 1 h at room temperature, and then with the ABC solution (1:1:200) for 1 h at room temperature. The immunoperoxidase signals of TH was detected by incubating sections with 0.5 mg/ml 3,3′-diaminobenzidine (Sigma, St. Louis, MO, USA) in 0.1 M PB containing 0.003% H2O2. Stained brain sections were mounted on gelatin-coated slides and imaged under a bright-field microscope (Olympus Optical, Tokyo, Japan). TH-positivity in the ST was measured by the optical density of TH-positive fibers at x40 magnification using ImageJ software (National Institutes of Health, Bethesda, MD, USA). TH-positive cells in the SNpc in brain tissue Sect. (5 sections/series) were counted at x100 magnification as previously described. […]"}, "[2]": {"biological_target": "T1, PON2 in mouse brain tissue (Mus musculus, UniProt Q62086)", "T1 construct": "Brain tissue pieces were pulverized under frozen conditions in a mortar with liquid nitrogen; from tissue; host or cells: brain tissue of mice dosed orally with vehicle or Vuti for 5 days", "experiment": "Cellular thermal shift assay (CESTA) of PON2 in brain tissue", "assay_type": "binding", "procedure": "Interaction of PON2 and Vuti in mouse brain tissue was evaluated by Cellular Thermal Shift Assay (CESTA®) in vivo [65] (Pelago Bioscience AB, Solna, Sweden). Briefly, mice were orally administered vehicle or Vuti at 50 mg/kg (Vuti 50) or 100 mg/kg (Vuti 100) for 5 days. Brain tissue pieces were pulverized under frozen conditions in a mortar with liquid nitrogen. Equal amounts of tissue powder were placed into 8 or 12 separate PCR strip tubes for each set of the treated tissues and kept frozen until heat challenged. Pre-heated 60 µl HBSS buffer was added to the tubes and samples were immediately subjected to an 8 or 12-step heat challenge for 3 min between 37 °C and 59 °C. Samples were then snap-frozen in liquid nitrogen and lysed by freeze-thawing. After the first round of freeze thawing 1% Brij 35 was added to the samples and the samples were incubated with shaking for 20 min at 4 °C before the two last rounds of freeze thawing. After centrifugation at 20 000 x g for 20 min, 35 µl of the supernatant was mixed with 17,5 µl gel loading buffer (NuPAGE LDS sample buffer, Thermo Fisher Scientific, Waltham, MA, USA). Total protein lysate (6 µg) was separated on 12% SDS-PAGE gels. […] Western Blot detected PON2 protein (abcam, ab183718) normalized to SOD-1, a temperature stable protein band observed in the full protein gel detection with house-keeping gene."}, "[3]": {"biological_target": "T2, PON2 (Mus musculus, UniProt Q62086)", "T2 construct": "we infected a primary cultured cortical astrocytes with AAV-CMV-αsyn-A53T virus; endogenous in cells; host or cells: primary cultured cortical astrocytes infected with AAV-CMV-αsyn-A53T", "experiment": "PON2 activity assay (esterase and lactonase) in A53T-infected astrocytes", "assay_type": "cell-based", "conditions": "primary cultured astrocytes infected with A53T virus, Vuti 24 h", "procedure": "To assess PON2 activity following Vuti treatment, we infected a primary cultured cortical astrocytes with AAV-CMV-αsyn-A53T virus. Five days post-infection, we treated the cells with Vuti for 24 h and conducted esterase and lactonase assays. For the esterase activity evaluation, reactions were initiated by adding 1 mM p-nitrophenyl acetate (pNPA) to the PON2 activity assay buffer. Enzymatic hydrolysis was monitored by measuring the absorbance at 412 nm. For lactonase activity, the reactions were initiated with 1 mM thio-butyrolactone (TBBL) and 1 mM 5,5’-dithiobis(2-nitrobenzoic acid) (DTNB) in the PON2 activity assay buffer, with absorbance measured at 420 nm to monitor enzymatic hydrolysis."}, "[4]": {"conditions": "Vuti 1, 50, 100 mg/kg/day or rasagiline 0.1 mg/kg/day orally for 21 days"}},
  "data": [
    {"smiles": "CCOc1ccc(C2COc3c(ccc4c3CCC(C)(C)O4)C2)c(O)c1", "note": "(stereo not shown) [Vuti, Vutiglabridin]", "values": [
      {"measurement": "effect on T-LA in the pole test", "setting": "[1]; [4]", "value": "significantly normalized"},
      {"measurement": "effect on latency to fall in the rotarod test", "setting": "[1]; [4]", "value": "significantly normalized"},
      {"measurement": "number of TH-positive cells in the SNpc and fiber density in the ST", "setting": "[1]; Vuti 1, 50, 100 mg/kg/day oral, p < 0.001 vs. control, levels comparable to rasagiline", "value": "dose-dependently increased"},
      {"measurement": "maximum efficacy dose", "setting": "[1]; no difference in neuroprotection between 50 and 100 mg/kg", "value": 50, "unit": "mg/kg"},
      {"measurement": "increase of the Tm of PON2 over vehicle group", "setting": "[2]; Vuti 50 mg/kg for 5 days (Vuti 50)", "value": "approximately 1.3 °C"},
      {"measurement": "increase of the Tm of PON2 over vehicle group", "setting": "[2]; Vuti 100 mg/kg for 5 days (Vuti 100)", "value": "~1.4", "unit": "°C"},
      {"measurement": "PON2 esterase and lactonase activities", "setting": "[3]", "value": "increased"}
    ]}
  ]
}
